From patent US10709709B2, “Substituted carbonucleoside derivatives useful as anticancer agents” (Pfizer Inc., priority 2016, dated 2020)

Tests used:
[1] = target: PRMT5/MEP50 protein complex (Homo sapiens (Human), UniProt O14744); test: PRMT5 biochemical assay (3H-SAM methylation of H4(1-21) peptide, filter plate scintillation); settings: 10 nM PRMT5/MEP50 complex, 200 nM H4(1-21) peptide, 1 uM SAM, 25 minute incubation at room temperature
How it was run: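 Human PRMT5/MEP50 complex (10 nM) methylating H4(1-21) peptide (200 nM) with 3H/unlabelled SAM (1 uM final) in pH 8.5 Tris buffer, 25 min at room temperature. Stopped with TCA, 3H-peptide captured on filter plates and scintillation-counted. IC50 from 4-parameter fit.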

[2] = test system: A549 lung adenocarcinoma cells; test: A549 proliferation assay (Cell Titer Glo); assay type: cell-based; settings: Homo sapiens, A549, 168 h, 7 days with compound, cell viability by Cell Titer Glo (ATP)
Procedure: A549 lung adenocarcinoma cells (American Type Culture Collection) were maintained in DMEM growth media (Life Technologies) supplemented with 10% v/v heat inactivated fetal bovine serum (Sigma) and cultured at 37° C., 5% CO2. Exponentially growing A549 cells were plated in 96-well black tissue culture treated plates (Corning) at a density of […] in a volume of 100 μl culture media and allowed to adhere overnight at 37° C., 5% CO2. The following day, compound plates were prepared by making nine-point 3.3-fold dilutions in DMSO with a top concentration of 10 mM. Compounds were further diluted in culture media and 11 μl was added to the cells (final top assay concentration was 10 μM and DMSO was 0.2%). Cells were incubated with compound at 37° C., 5% CO2 for 7 days with media and compound replacement on day 4. Cell viability was assayed on Day 7 by adding 100 μl Cell Titer Glo (Promega) reagent to the plate to measure the amount of ATP present in the cells. Luminescence was read using the Envision 2104 Multilabel Reader (Perkin Elmer). The 50% inhibitory concentration (IC50) was determined using a 4-parameter fit model normalized to the DMSO control in dose response.

Chain of PRMT5/MEP50 protein complex (O14744 other isoform, or with tags, fused parts or gaps): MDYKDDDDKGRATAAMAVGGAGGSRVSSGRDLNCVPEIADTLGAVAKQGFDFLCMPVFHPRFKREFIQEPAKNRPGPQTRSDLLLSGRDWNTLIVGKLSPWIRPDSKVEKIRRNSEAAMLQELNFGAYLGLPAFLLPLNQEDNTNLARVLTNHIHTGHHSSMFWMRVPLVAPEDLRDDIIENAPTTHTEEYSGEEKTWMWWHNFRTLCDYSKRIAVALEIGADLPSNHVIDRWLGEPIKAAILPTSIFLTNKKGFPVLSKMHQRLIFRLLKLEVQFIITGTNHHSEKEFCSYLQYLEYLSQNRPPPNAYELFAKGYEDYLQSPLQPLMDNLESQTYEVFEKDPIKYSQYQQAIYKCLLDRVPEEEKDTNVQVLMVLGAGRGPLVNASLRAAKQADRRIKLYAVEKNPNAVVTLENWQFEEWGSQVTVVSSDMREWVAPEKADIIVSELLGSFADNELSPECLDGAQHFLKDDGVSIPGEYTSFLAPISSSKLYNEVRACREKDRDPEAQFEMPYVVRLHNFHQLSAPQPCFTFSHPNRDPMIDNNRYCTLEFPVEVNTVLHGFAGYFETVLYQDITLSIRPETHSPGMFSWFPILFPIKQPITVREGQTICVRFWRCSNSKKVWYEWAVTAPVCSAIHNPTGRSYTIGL
Chain of PRMT5/MEP50 protein complex (Q9BQA1 whole entry partner): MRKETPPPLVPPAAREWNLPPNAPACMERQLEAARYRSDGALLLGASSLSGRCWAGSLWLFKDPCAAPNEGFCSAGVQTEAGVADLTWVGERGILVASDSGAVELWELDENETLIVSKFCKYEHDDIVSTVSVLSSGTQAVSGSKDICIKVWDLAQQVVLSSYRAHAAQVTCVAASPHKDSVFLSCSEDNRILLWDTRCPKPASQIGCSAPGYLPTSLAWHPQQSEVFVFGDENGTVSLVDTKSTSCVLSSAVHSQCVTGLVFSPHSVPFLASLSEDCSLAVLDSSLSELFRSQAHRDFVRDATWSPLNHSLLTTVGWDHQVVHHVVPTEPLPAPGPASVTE

| IC50 [1] | IC50 [2] | SMILES |
| --- | --- | --- |
| 1 nM | 1620 nM | Cc1ncnc2c1ccn2[C@@H]1C[C@H](Oc2cccc3c2CNCC3)[C@@H](O)[C@H]1O [Example 78, (1S,2S,3R,5S)-3-(4-methyl-7H-pyrrolo[2,3-d]pyrimidin-7-yl)-5-((1,2,3,4-tetrahydroisoquinolin-8-yl)oxy)cyclopentane-1,2-diol] |
| 2 nM | 500 nM | Cc1ncnc2c1ccn2[C@@H]1C[C@H](Oc2ccc(F)c3c2CNCC3)[C@@H](O)[C@H]1O [Example 84, (1S,2S,3S,5R)-3-((5-fluoro-1,2,3,4-tetrahydroisoquinolin-8-yl)oxy)-5-(4-methyl-7H-pyrrolo[2,3-d]pyrimidin-7-yl)cyclopentane-1,2-diol] |
| 2 nM | 920 nM | Cc1ncnc2c1ccn2[C@@H]1C[C@H](Oc2cc(F)cc3c2CNCC3)[C@@H](O)[C@H]1O [Example 85, (1S,2S,3S,5R)-3-((6-fluoro-1,2,3,4-tetrahydroisoquinolin-8-yl)oxy)-5-(4-methyl-7H-pyrrolo[2,3-d]pyrimidin-7-yl)cyclopentane-1,2-diol] |
| 4 nM | 1840 nM | Cc1ncnc2c1ccn2[C@@H]1C[C@H](Oc2ccc(Cl)c3c2CNCC3)[C@@H](O)[C@H]1O [Example 86, (1S,2S,3S,5R)-3-((5-chloro-1,2,3,4-tetrahydroisoquinolin-8-yl)oxy)-5-(4-methyl-7H-pyrrolo[2,3-d]pyrimidin-7-yl)cyclopentane-1,2-diol] |
| 2 nM | 296 nM | Cc1ncnc2c1ccn2[C@@H]1C[C@H](Oc2cc(Cl)cc3c2CNCC3)[C@@H](O)[C@H]1O [Example 87, (1S,2S,3S,5R)-3-((6-chloro-1,2,3,4-tetrahydroisoquinolin-8-yl)oxy)-5-(4-methyl-7H-pyrrolo[2,3-d]pyrimidin-7-yl)cyclopentane-1,2-diol] |
| 1 nM | 545 nM | Cc1cc2c(c(O[C@H]3C[C@@H](n4ccc5c(C)ncnc54)[C@H](O)[C@@H]3O)c1)CNCC2 [Example 88, (1S,2S,3R,5S)-3-(4-methyl-7H-pyrrolo[2;3-d]pyrimidin-7-yl)-5-[(6-methyl-1,2,3,4-tetrahydroisoquinolin-8-yl)oxy]cyclopentane-1,2-diol] |
| 1 nM | 195 nM | Cc1ncnc2c1ccn2[C@@H]1C[C@H](Oc2cc(Br)cc3c2CNCC3)[C@@H](O)[C@H]1O [Example 89, (1S,2S,3S,5R)-3-((6-bromo-1,2,3,4-tetrahydroisoquinolin-8-yl)oxy)-5-(4-methyl-7H-pyrrolo[2,3-d]pyrimidin-7-yl)cyclopentane-1,2-diol] |
| 2 nM | 948 nM | Cc1ncnc2c1ccn2[C@@H]1C[C@H](Oc2cc(C(F)(F)F)cc3c2CNCC3)[C@@H](O)[C@H]1O [Example 90, (1S,2S,3R,5S)-3-(4-methyl-7H-pyrrolo[2,3-d]pyrimidin-7-yl)-5-((6-(trifluoromethyl)-1,2,3,4-tetrahydroisoquinolin-8-yl)oxy)cyclopentane-1,2-diol] |
| 1 nM | 312 nM | Cc1ncnc2c1ccn2[C@@H]1C[C@H](Oc2cc(F)c(F)c3c2CNCC3)[C@@H](O)[C@H]1O [Example 92, (1S,2S,3S,5R)-3-((5,6-difluoro-1,2,3,4-tetrahydroisoquinolin-8-yl)oxy)-5-(4-methyl-7H-pyrrolo[2,3-d]pyrimidin-7-yl)cyclopentane-1,2-diol] |
| 1 nM | 140 nM | Cc1ncnc2c1ccn2[C@@H]1C[C@H](Oc2cc(Cl)c(F)c3c2CNCC3)[C@@H](O)[C@H]1O [Example 93, (1S,2S,3S,5R)-3-((6-chloro-5-fluoro-1,2,3,4-tetrahydroisoquinolin-8-yl)oxy)-5-(4-methyl-7H-pyrrolo[2,3-d]pyrimidin-7-yl)cyclopentane-1,2-diol] |
| 1 nM | 115 nM | Cc1ncnc2c1ccn2[C@@H]1C[C@H](Oc2cc(Br)c(F)c3c2CNCC3)[C@@H](O)[C@H]1O [Example 94, (1S,2S,3S,5R)-3-((6-bromo-5-fluoro-1,2,3,4-tetrahydroisoquinolin-8-yl)oxy)-5-(4-methyl-7H-pyrrolo[2,3-d]pyrimidin-7-yl)cyclopentane-1,2-diol] |
| 6 nM | 8130 nM | Cc1ncnc2c1ccn2[C@@H]1C[C@H](Oc2cncc3c2CNCC3)[C@@H](O)[C@H]1O [Example 95, (1S,2S,3R,5S)-3-(4-methyl-7H-pyrrolo[2,3-d]pyrimidin-7-yl)-5-((5,6,7,8-tetrahydro-2,6-naphthyridin-4-yl)oxy)cyclopentane-1,2-diol] |
| 11 nM | 1490 nM | Cc1ncnc2c1ccn2[C@@H]1C[C@H](Oc2ccc(I)c3c2CNCC3)[C@@H](O)[C@H]1O [Example 98, (1S,2S,3S,5R)-3-((5-iodo-1,2,3,4-tetrahydroisoquinolin-8-yl)oxy)-5-(4-methyl-7H-pyrrolo[2,3-d]pyrimidin-7-yl)cyclopentane-1,2-diol] |
| 2 nM | 728 nM | Nc1ncnc2c1c(F)cn2[C@@H]1C[C@H](Oc2cccc3c2CNCC3)[C@@H](O)[C@H]1O [Example 99, (1S,2S,3R,5S)-3-(4-amino-5-fluoro-7H-pyrrolo[2,3-d]pyrimidin-7-yl)-5-((1,2,3,4-tetrahydroisoquinolin-8-yl)oxy)cyclopentane-1,2-diol] |
| 1 nM | 185 nM | Nc1ncnc2c1c(F)cn2[C@@H]1C[C@H](Oc2ccc(F)c3c2CNCC3)[C@@H](O)[C@H]1O [Example 100, (1S,2S,3R,5S)-3-(4-amino-5-fluoro-7H-pyrrolo[2,3-d]pyrimidin-7-yl)-5-((5-fluoro-1,2,3,4-tetrahydroisoquinolin-8-yl)oxy)cyclopentane-1,2-diol] |
| 1 nM | 112 nM | Nc1ncnc2c1c(F)cn2[C@@H]1C[C@H](Oc2cc(Br)cc3c2CNCC3)[C@@H](O)[C@H]1O [Example 101, (1S,2S,3R,5S)-3-(4-amino-5-fluoro-7H-pyrrolo[2,3-d]pyrimidin-7-yl)-5-((6-bromo-1,2,3,4-tetrahydroisoquinolin-8-yl)oxy)cyclopentane-1,2-diol] |
| 1 nM | 192 nM | Nc1ncnc2c1c(F)cn2[C@@H]1C[C@H](Oc2cc(Cl)cc3c2CNCC3)[C@@H](O)[C@H]1O [Example 102, (1S,2S,3R,5S)-3-(4-amino-5-fluoro-7H-pyrrolo[2,3-d]pyrimidin-7-yl)-5-((6-chloro-1,2,3,4-tetrahydroisoquinolin-8-yl)oxy)cyclopentane-1,2-diol] |
| 1 nM | 201 nM | Nc1ncnc2c1c(F)cn2[C@@H]1C[C@H](Oc2cc(F)c(F)c3c2CNCC3)[C@@H](O)[C@H]1O [Example 103, (1S,2S,3R,5S)-3-(4-amino-5-fluoro-7H-pyrrolo[2,3-d]pyrimidin-7-yl)-5-((5,6-difluoro-1,2,3,4-tetrahydroisoquinolin-8-yl)oxy)cyclopentane-1,2-diol] |
| 1 nM | 460 nM | Nc1ncnc2c1c(F)cn2[C@@H]1C[C@H](Oc2cc(C(F)(F)F)cc3c2CNCC3)[C@@H](O)[C@H]1O [Example 104, (1S,2S,3R,5S)-3-(4-amino-5-fluoro-7H-pyrrolo[2,3-d]pyrimidin-7-yl)-5-((6-(trifluoromethyl)-1,2,3,4-tetrahydroisoquinolin-8-yl)oxy)cyclopentane-1,2-diol] |
| 1 nM | 383 nM | Cc1cc2c(c(O[C@H]3C[C@@H](n4cc(F)c5c(N)ncnc54)[C@H](O)[C@@H]3O)c1)CNCC2 [Example 105, (1S,2S,3R,5S)-3-(4-amino-5-fluoro-7H-pyrrolo[2,3-d]pyrimidin-7-yl)-5-((6-methyl-1,2,3,4-tetrahydroisoquinolin-8-yl)oxy)cyclopentane-1,2-diol] |
| 2 nM | 3850 nM | CCc1cc2c(c(O[C@H]3C[C@@H](n4cc(F)c5c(N)ncnc54)[C@H](O)[C@@H]3O)c1)CNCC2 [Example 106, (1S,2S,3R,5S)-3-(4-amino-5-fluoro-7H-pyrrolo[2,3-d]pyrimidin-7-yl)-5-((6-ethyl-1,2,3,4-tetrahydroisoquinolin-8-yl)oxy)cyclopentane-1,2-diol] |
| 1 nM | 991 nM | Nc1ncnc2c1c(F)cn2[C@@H]1C[C@H](Oc2cc(F)cc3c2CNCC3)[C@@H](O)[C@H]1O [Example 107, (1S,2S,3R,5S)-3-(4-amino-5-fluoro-7H-pyrrolo[2,3-d]pyrimidin-7-yl)-5-((6-fluoro-1,2,3,4-tetrahydroisoquinolin-8-yl)oxy)cyclopentane-1,2-diol] |
| 1 nM | 163 nM | Nc1ncnc2c1c(F)cn2[C@@H]1C[C@H](Oc2cc(Cl)c(F)c3c2CNCC3)[C@@H](O)[C@H]1O [Example 108, (1S,2S,3R,5S)-3-(4-amino-5-fluoro-7H-pyrrolo[2,3-d]pyrimidin-7-yl)-5-((6-chloro-5-fluoro-1,2,3,4-tetrahydroisoquinolin-8-yl)oxy)cyclopentane-1,2-diol] |

| SMILES | IC50 [1] | IC50 [2] |
| --- | --- | --- |
| Cc1ncnc2c1ccn2[C@@H]1C[C@H](Oc2cc(C#N)cc3c2CNCC3)[C@@H](O)[C@H]1O [Example 91, 8-(((1S,2S,3S,4R)-2,3-dihydroxy-4-(4-methyl-7H-pyrrolo[2,3-d]pyrimidin-7-yl)cyclopentyl)oxy)-1,2,3,4-tetrahydroisoquinoline-6-carbonitrile] | 1 nM | 119 nM |
